Numbering of substitutions follows the chain as printed.
Assays:
Format in all cases: cell-based
AR protein [1] = target: T1, AR protein (Homo sapiens, UniProt P10275, T878A); test: Degradation of AR protein in LNCaP cells (Western blot); conditions: LNCaP cells, 8 hours, Western blot grayscale, GAPDH internal reference; for inhibition at 0.01 µM: compound 10 nM, read-out: Degradation rates of the AR protein in LNCaP cells, 10 nM (%); for inhibition at 0.1 µM: compound 100 nM, read-out: Degradation rates of the AR protein in LNCaP cells, 100 nM (%)
T1 construct: degradation activity of the compounds disclosed in the present disclosure on AR protein in LNCaP cells; host or cells: LNCaP FGC
T1 sequence (P10275 1-920 T878A): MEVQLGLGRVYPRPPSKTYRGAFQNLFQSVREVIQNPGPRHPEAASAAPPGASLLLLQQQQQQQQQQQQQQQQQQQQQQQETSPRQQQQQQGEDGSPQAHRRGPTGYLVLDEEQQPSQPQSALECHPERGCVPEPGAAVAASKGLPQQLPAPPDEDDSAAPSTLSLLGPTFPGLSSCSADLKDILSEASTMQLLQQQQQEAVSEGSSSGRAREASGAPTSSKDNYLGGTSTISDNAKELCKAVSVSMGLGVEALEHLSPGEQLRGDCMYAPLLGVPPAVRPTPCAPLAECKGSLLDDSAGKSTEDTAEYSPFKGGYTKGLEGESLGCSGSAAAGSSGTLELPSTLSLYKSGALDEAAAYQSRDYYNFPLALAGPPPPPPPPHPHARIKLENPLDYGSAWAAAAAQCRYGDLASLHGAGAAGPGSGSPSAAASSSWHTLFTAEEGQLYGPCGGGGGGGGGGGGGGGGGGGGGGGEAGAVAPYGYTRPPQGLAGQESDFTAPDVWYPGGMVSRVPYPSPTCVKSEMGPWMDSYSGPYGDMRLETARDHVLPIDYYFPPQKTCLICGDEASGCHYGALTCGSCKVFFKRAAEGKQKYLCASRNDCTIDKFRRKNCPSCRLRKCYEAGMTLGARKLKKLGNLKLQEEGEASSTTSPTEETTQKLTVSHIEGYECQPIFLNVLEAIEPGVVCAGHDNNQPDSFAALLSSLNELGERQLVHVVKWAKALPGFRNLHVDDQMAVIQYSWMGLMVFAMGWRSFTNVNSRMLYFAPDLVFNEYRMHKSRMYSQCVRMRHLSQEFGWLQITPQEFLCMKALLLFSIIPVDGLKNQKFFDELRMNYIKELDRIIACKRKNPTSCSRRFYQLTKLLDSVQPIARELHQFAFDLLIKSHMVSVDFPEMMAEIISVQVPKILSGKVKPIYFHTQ
Procedure, shortened: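 Percent AR degradation was derived from GAPDH-normalised Western blot band intensities (infrared detection) in LNCaP lysates.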

LNCaP FGC cells = test: Inhibition of proliferation of LNCaP cells (WST-8); conditions: Homo sapiens, LNCaP, 96 h, LNCaP FGC cells, 96 hours, WST-8 absorbance at 450 nm; read-out: IC50 for inhibiting the proliferation of LNCaP cells
Procedure: The cells were cultured in a cell culture incubator with 5% CO2 at 37° C. overnight. […] On the sixth day, 96 well plates were taken out, and 20 μL of WST-8 (Beytime, C0040) reagent was added to each well.

VCaP cells = test: Inhibition of proliferation of VCaP cells (WST-8); conditions: Homo sapiens; VCaP cells, 168 hours, WST-8 absorbance at 450 nm; read-out: IC50 for inhibiting the proliferation of VCaP cells
Procedure, shortened: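 Proliferation was read by WST-8 on day nine. Cells were VCaP FGC, seeded at 15000 cells per well in 10% FBS DMEM and kept at 37° C with 5% CO2.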

AR protein [2] = target: T2, AR protein (Homo sapiens, UniProt P10275); test: Degradation of AR protein in VCaP cells (Western blot); conditions: 8 hours; for inhibition at 0.01 µM: compound at 10 nM, read-out: Degradation rate of the AR protein in VCaP cells, 10 nM (%); for inhibition at 0.1 µM: compound at 100 nM, read-out: Degradation rate of the AR protein in VCaP cells, 100 nM (%)
T2 construct: degradation activity of the compounds disclosed in the present disclosure on AR protein in VCaP cells; host or cells: VCaP
T2 sequence (P10275 1-920): T1 sequence (P10275 1-920 T878A) with A878T
Procedure, shortened: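 Western blot readout: AR band grayscale normalised to GAPDH, used to derive degradation rate. Lysates came from VCaP cells exposed to compound for 8 h, with solvent controls run in parallel.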

Row | SMILES | inhibition at 0.01 µM (AR protein [1]) [%] | inhibition at 0.1 µM (AR protein [1]) [%] | IC50 (LNCaP FGC cells) [nM] | IC50 (VCaP cells) [nM] | inhibition at 0.01 µM (AR protein [2]) [%] | inhibition at 0.1 µM (AR protein [2]) [%]
1 | N#Cc1ccc(O[C@H]2CC[C@H](NC(=O)c3ccc(N4CCC5(CC4)COc4cc6c(cc45)C(=O)N(C4CCC(=O)NC4=O)C6=O)nn3)CC2)cc1Cl (stereo partly drawn) [Compound 52] | 43 | 22 | 4500 | 6800 | 16 | 26
2 | N#Cc1ccc(O[C@H]2CC[C@H](NC(=O)c3ccc(N4CC5(CC(N6CCC7(CCc8ccc9c(c8O7)CN(C7CCC(=O)NC7=O)C9=O)CC6)C5)C4)nn3)CC2)cc1Cl (stereo partly drawn) [Compound 152] | 45 | 24 | 28300 | > 90000 | 51 | 72
3 | N#Cc1ccc(O[C@H]2CC[C@H](NC(=O)c3ccc(N4CCC(CN5CC6(CCc7cc8c(cc7O6)CN(C6CCC(=O)NC6=O)C8=O)C5)CC4)nn3)CC2)cc1Cl (stereo partly drawn) [Compound 7] | 86 | 79 | 1570 | 3540 | 72 | 79
4 | N#Cc1ccc(O[C@H]2CC[C@H](NC(=O)c3ccc(N4CC5(CC(C(=O)N6CCC7(CC6)COc6c7ccc7c6CN(C6CCC(=O)NC6=O)C7=O)C5)C4)nn3)CC2)cc1Cl (stereo partly drawn) [Compound 256] | 47 | 36 | 56000 | 7.5 | 48 | 81
5 | CC1(C)[C@H](NC(=O)c2ccc(N3CCC(CN4CCC5(CC4)COc4c5ccc5c4CN(C4CCC(=O)NC4=O)C5=O)CC3)nn2)C(C)(C)[C@H]1Oc1ccc(C#N)c(Cl)c1 (stereo partly drawn) [Compound 210] | 61 | 59 | 8 | 2 | 28 | 71
6 | N#Cc1ccc(O[C@H]2CC[C@H](NC(=O)c3ccc(N4CCC(CN5CCC6(CCc7cc8c(cc7O6)C(=O)N(C6CCC(=O)NC6=O)C8)CC5)CC4)nn3)CC2)cc1Cl (stereo partly drawn) [Compound 44] | 85 | 84 | 1140 | 2.5 | 79 | 83
7 | N#Cc1ccc(O[C@H]2CC[C@H](NC(=O)c3ccc(N4CCC(CN5CC6(CCc7cc8c(cc7O6)C(=O)N(C6CCC(=O)NC6=O)C8)C5)CC4)nn3)CC2)cc1Cl (stereo partly drawn) [Compound 8] | 78 | 67 | 2090 | 1 | 24 | 76
8 | CCOC1(CN2CCC3(CC2)COc2c3ccc3c2C(=O)N(C2CCC(=O)NC2=O)C3=O)CCN(c2ccc(C(=O)N[C@H]3CC[C@H](Oc4ccc(C#N)c(OC)c4)CC3)nn2)CC1 (stereo partly drawn) [Compound 243] | 24 | 58 | 120 | 18 | 16 | 68
9 | N#Cc1ccc(O[C@H]2CC[C@H](NC(=O)c3ccc(N4CCC(N5CCC6(CCc7cc8c(cc7O6)C(=O)N(C6CCC(=O)NC6=O)C8=O)CC5)C(F)(F)C4)nn3)CC2)cc1Cl (stereo partly drawn) [Compound 27] | 14 | 39 | 110 | 380 | 33 | 44
10 | N#Cc1ccc(O[C@H]2CC[C@H](NC(=O)c3ccc(N4CC5(CCC(N6CCC7(CC6)COc6cc8c(cc67)C(=O)N(C6CCC(=O)NC6=O)C8=O)CC5)C4)nn3)CC2)cc1Cl (stereo partly drawn) [Compound 53] | 69 | 85 | 380 | 43 | 62 | 71
11 | N#Cc1ccc(O[C@H]2CC[C@H](NC(=O)c3ccc(N4CC(CN5CCC6(CC5)COc5cc7c(cc56)C(=O)N(C5CCC(=O)NC5=O)C7=O)C4)nn3)CC2)cc1Cl (stereo partly drawn) [Compound 55] | 44 | 69 | 1000 | 83 | 77 | 80

Next, values leading:

Row | inhibition at 0.01 µM (AR protein [1]) [%] | inhibition at 0.1 µM (AR protein [1]) [%] | IC50 (LNCaP FGC cells) [nM] | IC50 (VCaP cells) [nM] | inhibition at 0.01 µM (AR protein [2]) [%] | inhibition at 0.1 µM (AR protein [2]) [%] | SMILES
12 | 13 | 48 | 1000 | 170 | 41 | 54 | N#Cc1ccc(O[C@H]2CC[C@H](NC(=O)c3ccc(N4CC(CN5CCC6(CCc7cc8c(cc7O6)C(=O)N(C6CCC(=O)NC6=O)C8=O)CC5)C4)nn3)CC2)cc1Cl (stereo partly drawn) [Compound 20]
13 | 18 | 51 | 5840 | 19 | 9 | 73 | COc1cc(O[C@H]2C(C)(C)[C@H](NC(=O)c3ccc(N4CCC(F)(CN5CCC6(CC5)COc5cc7c(cc5O6)CN(C5CCC(=O)NC5=O)C7=O)CC4)cc3)C2(C)C)ccc1C#N (stereo partly drawn) [Compound 284]
14 | 7 | 57 | 4940 | 110 | 59 | 69 | N#Cc1ccc(O[C@H]2CC[C@H](NC(=O)c3ccc(N4CCC(CN5CCC6(CC5)Oc5cc7c(cc5CC6(F)F)C(=O)N(C5CCC(=O)NC5=O)C7=O)CC4)nn3)CC2)cc1Cl (stereo partly drawn) [Compound 18]
15 | 55 | 67 | 8810 | 35 | -11 | 59 | COc1cc(O[C@H]2C(C)(C)[C@H](NC(=O)c3ccc(N4CCC(CN5CCC6(CCc7cc8c(cc7O6)C(=O)N(C6CCC(=O)NC6=O)C8=O)CC5)CC4)cc3)C2(C)C)ccc1C#N (stereo partly drawn) [Compound 276]
16 | 42 | 40 | 61400 | 2 | 47 | 81 | COc1cc(O[C@H]2C(C)(C)[C@H](NC(=O)c3ccc(N4CCC(CN5CC6(CCc7cc8c(cc7O6)CN(C6CCC(=O)NC6=O)C8=O)C5)CC4)cc3)C2(C)C)ccc1C#N (stereo partly drawn) [Compound 297]
